This experiment addresses T1, human mGlu 5a receptor (Homo sapiens, UniProt P41594).
T1 construct: expressed in transfected cells; host or cells: EBNA cells (transient transfection), membrane homogenates
Description: [3H]MPEP competition binding on membranes of EBNA cells transfected with human mGlu 5a receptor. To be noted: competition with [3H]MPEP (2 nM), 1 h at 4° C., EBNA cell membranes. As for the experimental part: The pharmacological activity of the compounds was tested using the following method: For binding experiments, cDNA encoding human mGlu 5a receptor was transiently transfected into EBNA cells using a procedure described by Schlaeger and Christensen [Cytotechnology 15:1-13 (1998)]. Cell membrane homogenates were stored at −80° C. until the day of assay where upon they were thawed and resuspended and polytronised in 15 mM Tris-HCl, 120 mM NaCl, 100 mM KCl, 25 mM CaCl2, 25 mM MgCl2 binding buffer at pH 7.4 to a final assay concentration of 20 μg protein/well.
Saturation isotherms were determined by addition of twelve [^3H] MPEP concentrations (0.04-100 nM) to these membranes (in a total volume of 200 μd) for 1 h at 4° C. Competition experiments were performed with a fixed concentration of [^3H]MPEP (2 nM) and IC50 values of test compounds evaluated using 11 concentrations (0.3-10,000 nM). Incubations were performed for 1 h at 4° C.
At the end of the incubation, membranes were filtered onto unifilter (96-well white microplate with bonded GF/C filter preincubated 1 h in 0.1% PEI in wash buffer, Packard Bio-Science, Meriden, Conn.) with a Filtermate 96 harvester (Packard BioScience) and washed 3 times with cold 50 mM Tris-HCl, pH 7.4 buffer. Nonspecific binding was measured in the presence of 10 μM MPEP. The radioactivity on the filter was counted (3 min) on a Packard Top-count microplate scintillation counter with quenching correction after addition of 45 μl of microscint 40 (Canberra Packard S. A., Zürich, Switzerland) and shaking for 20 min.
For binding experiments the Ki values of the compounds tested are given. The Ki value is defined by the following formula: KiIC50/[1+L/Kd] in which the IC50 values are those concentrations of the compounds tested which cause 50% inhibition of the competing radioligand ([^3H]MPEP). L is the concentration of radioligand used in the binding experiment and the Kd value of the radioligand is empirically determined for each batch of membranes prepared.

For orientation: Ki means the dissociation constant of the complex between target and ligand, obtained from inhibition or displacement.

Molecules are shown by their SMILES.

T1 sequence (P41594 21-1180 isoform P41594-2 limits assumed): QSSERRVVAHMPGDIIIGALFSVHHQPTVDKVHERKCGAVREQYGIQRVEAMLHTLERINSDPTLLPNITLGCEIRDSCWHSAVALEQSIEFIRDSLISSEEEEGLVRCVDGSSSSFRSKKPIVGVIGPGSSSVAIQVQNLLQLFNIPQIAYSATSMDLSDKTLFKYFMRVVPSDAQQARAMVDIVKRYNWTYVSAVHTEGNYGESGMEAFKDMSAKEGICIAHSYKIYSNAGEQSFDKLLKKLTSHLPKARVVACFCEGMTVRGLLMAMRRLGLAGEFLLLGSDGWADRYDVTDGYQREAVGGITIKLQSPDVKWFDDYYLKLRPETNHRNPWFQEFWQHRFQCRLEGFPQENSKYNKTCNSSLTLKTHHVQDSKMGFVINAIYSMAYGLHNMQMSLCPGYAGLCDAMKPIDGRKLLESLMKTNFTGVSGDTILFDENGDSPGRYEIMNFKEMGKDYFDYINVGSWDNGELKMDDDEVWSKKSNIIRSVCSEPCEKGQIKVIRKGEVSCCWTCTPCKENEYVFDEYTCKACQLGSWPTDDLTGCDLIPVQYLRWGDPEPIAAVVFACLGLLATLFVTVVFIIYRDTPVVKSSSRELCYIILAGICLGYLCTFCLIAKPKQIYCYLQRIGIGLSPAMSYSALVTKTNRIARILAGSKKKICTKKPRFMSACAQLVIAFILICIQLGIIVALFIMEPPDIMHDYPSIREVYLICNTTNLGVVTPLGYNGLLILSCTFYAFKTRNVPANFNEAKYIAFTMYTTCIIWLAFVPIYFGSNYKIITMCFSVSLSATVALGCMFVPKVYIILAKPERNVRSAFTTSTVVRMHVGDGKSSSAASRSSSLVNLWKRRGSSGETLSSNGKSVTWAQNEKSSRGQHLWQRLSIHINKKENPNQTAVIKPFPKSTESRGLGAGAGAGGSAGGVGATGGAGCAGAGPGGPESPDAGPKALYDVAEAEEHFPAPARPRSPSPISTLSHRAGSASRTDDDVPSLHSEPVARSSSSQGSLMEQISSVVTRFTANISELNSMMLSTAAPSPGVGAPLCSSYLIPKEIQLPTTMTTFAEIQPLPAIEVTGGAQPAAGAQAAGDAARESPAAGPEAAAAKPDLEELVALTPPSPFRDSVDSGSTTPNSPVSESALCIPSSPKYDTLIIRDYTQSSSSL

`Cc1cc(-c2cccc(OC(F)(F)F)c2)cc(C(=O)Nc2nc(C)cs2)n1` [Example 7, 6-Methyl-4-(3-trifluoromethoxy-phenyl)-pyridine-2-carboxylic acid (4-methyl-thiazol-2-yl)-amide]: the Ki (head prints no unit) worked out at 14 nM. Regarding `Cc1cc(-c2ccnc(Cl)c2)cc(C(=O)Nc2ccn(C)n2)n1` [Example 153, 2′-Chloro-6-methyl-[4,4′]bipyridinyl-2-carboxylic acid (1-methyl-1H-pyrazol-3-yl)-amide], the Ki came out at 59 nM. Consider `Cc1cc(-c2cc(Cl)cc(Cl)c2)cc(C(=O)Nc2ccn(C)n2)n1` [Example 23, 4-(3,5-Dichloro-phenyl)-6-methyl-pyridine-2-carboxylic acid (1-methyl-1H-pyrazol-3-yl)-amide], for which the Ki worked out at 4 nM. With `COc1ccccc1-c1cc(C)nc(C(=O)Nc2nc(C)cs2)c1` [Example 13, 4-(2-Methoxy-phenyl)-6-methyl-pyridine-2-carboxylic acid (4-methyl-thiazol-2-yl)-amide], the Ki (head prints no unit) was determined as 25 nM. As to `CCOC(=O)Cn1ccc(NC(=O)c2cc(-c3cc(F)cc(F)c3)cc(C)n2)n1` [Example 170, (3-{[4-(3,5-Difluorophenyl)-6-methyl-pyridine-2-carbonyl]-amino}-pyrazol-1-yl)-acetic acid ethyl ester], the Ki was 576 nM.

For `Cc1cc(-c2cc(F)cc(F)c2)nc(C(=O)Nc2ccnc(Cl)c2)n1` [Example 194, 4-(3,5-Difluoro-phenyl)-6-methyl-pyrimidine-2-carboxylic acid (2-chloro-pyridin-4-yl)-amide], the Ki was 221 nM. Consider `COc1cncc(-c2cc(C)nc(C(=O)Nc3ccn(C)n3)c2)c1` [Example 50, 5-Methoxy-6′-methyl-[3,4′]bipyridinyl-2′-carboxylic acid (1-methyl-1H-pyrazol-3-yl)-amide], for which the Ki is 213 nM. For `Cc1cc(-c2ccccc2Cl)cc(C(=O)Nc2nc(C)cs2)n1` [Example 14, 4-(2-Chloro-phenyl)-6-methyl-pyridine-2-carboxylic acid (4-methyl-thiazol-2-yl)-amide], under “head prints no unit”, the Ki came out at 4 nM. Regarding `Cc1cc(-c2ccc(F)cc2)cc(C(=O)Nc2nc(C)cs2)n1` [Example 27, 4-(4-Fluoro-phenyl)-6-methyl-pyridine-2-carboxylic acid (4-methyl-thiazol-2-yl)-amide], the Ki came to 55 nM. For the molecule `Cc1cc(-c2ccc(Cl)nc2)cc(C(=O)Nc2nc(C)cs2)n1` [Example 4, 6-Chloro-6′-methyl-[3,4′]bipyridinyl-2′-carboxylic add (4-methyl-thiazol-2-yl)-amide], the Ki (head prints no unit) came out at 244 nM.

Regarding `Cc1cc(-c2cccc(F)c2)cc(C(=O)Nc2nc(C)cs2)n1` [Example 1, 4-(3-Fluoro-phenyl)-6-methyl-pyridine-2-carboxylic acid (4-methyl-thiazol-2-yl)-amide], where the note is “head prints no unit”, the Ki turned out to be 3 nM. `Cc1cc(-c2cccc(C#N)c2)cc(C(=O)Nc2nc(C)cs2)n1` [Example 3, 4-(3-Cyano-phenyl)-6-methyl-pyridine-2-carboxylic acid (4-methyl-thiazol-2-yl)-amide]: the Ki (head prints no unit) was found to be 11 nM.

For `Cc1cc(-c2cncc(F)c2)cc(C(=O)Nc2ccccc2)n1` [Example 180, 5-Fluoro-6′-methyl-[3,4′]bipyridinyl-2′-carboxylic acid phenylamide], the Ki was 364 nM.

On to `Cc1cc(-c2cccnc2)cc(C(=O)Nc2nc(C)cs2)n1` [Example 16, 6′-Methyl-[3,4′]bipyridinyl-2′-carboxylic acid (4-methyl-thiazol-2-yl)-amide], for which, for the setting “head prints no unit”, the Ki was 17 nM. For `Cc1nc(C(=O)Nc2ccn(C)n2)cc(-c2cc(F)cc(F)c2)n1` [Example 35, 6-(3,5-Difluoro-phenyl)-2-methyl-pyrimidine-4-carboxylic acid (1-methyl-1H-pyrazol-3-yl)-amide], the Ki stood at 51 nM. Consider `Cc1cc(-c2cccc(S(C)(=O)=O)c2)cc(C(=O)Nc2nc(C)cs2)n1` [Example 8, 4-(3-Methanesulfonyl-phenyl)-6-methyl-pyridine-2-carboxylic acid (4-methyl-thiazol-2-yl)-amide], for which the inhibitory constant (Ki) (head prints no unit) was 396 nM. With `Cc1cc(-c2ccc(F)cc2)cc(C(=O)Nc2ccn(C)n2)n1` [Example 29, 4-(4-Fluoro-phenyl)-6-methyl-pyridine-2-carboxylic acid (1-methyl-1H-pyrazol-3-yl)-amide], the Ki turned out to be 250 nM.

Take `Cc1cc(NC(=O)c2cc(-c3cc(F)cc(F)c3)nc(C)n2)ccn1` [Example 37, 6-(3,5-Difluoro-phenyl)-2-methyl-pyrimidine-4-carboxylic acid (2-methyl-pyridin-4-yl)-amide]: the inhibitory constant (Ki) was found to be 90 nM.

In the case of `Cc1cccc(NC(=O)c2cc(-c3cccnc3)cc(C)n2)n1` [Example 87, 6′-Methyl-[3,4′]bipyridinyl-2′-carboxylic acid (6-methyl-pyridin-2-yl)-amide], the Ki amounted to 20 nM. Take `Cc1cc(-c2cc(C)nn2C)c(C)c(C(=O)Nc2csc(C)n2)n1` [Example 109, 4-(2,5-Dimethyl-2H-pyrazol-3-yl)-3,6-dimethyl-pyridine-2-carboxylic acid (2-methyl-thiazol-4-yl)-amide]: the Ki is 127 nM. `Cc1cc(-c2cc(Cl)cc(Cl)c2)cc(C(=O)Nc2nc(C)cs2)n1` [Example 17, 4-(3,5-Dichloro-phenyl)-6-methyl-pyridine-2-carboxylic acid (4-methyl-thiazol-2-yl)-amide]: where the note is “head prints no unit”, the Ki worked out at 2 nM. For `Cc1cc(-c2cccc(CO)c2)cc(C(=O)Nc2nc(C)cs2)n1` [Example 15, 4-(3-Hydroxymethyl-phenyl)-6-methyl-pyridine-2-carboxylic acid (4-methyl-thiazol-2-yl)-amide], the Ki (head prints no unit) stood at 17 nM. Still for that read-out and setting: as for `Cc1cc(-c2ccc(F)c(F)c2)cc(C(=O)Nc2nc(C)cs2)n1` [Example 10, 4-(3,4-Difluoro-phenyl)-6-methyl-pyridine-2-carboxylic acid (4-methyl-thiazol-2-yl)-amide], the figure is 23 nM.

Regarding `Cc1nc(C(=O)Nc2csc(C)n2)cc(-c2cc(F)cc(F)c2)n1` [Example 34, 6-(3,5-Difluoro-phenyl)-2-methyl-pyrimidine-4-carboxylic acid (2-methyl-thiazol-4-yl)-amide], the Ki is 36 nM.
